In US20240409585A1, “MACROCYCLIC IMMUNOMODULATORS” (priority 2021, published 2024):
Numbered stars: 1 amine (or outer) side, 2 acyl side, 3 side chain; on linkers, the order of the positions; unused ones are H or OH. Bridge positions count the residues as written; N and C are the ends. Square brackets hold non-standard residues; d marks the D form. Peptide text beside a SMILES is read from it. * marks the point of attachment. X51 = O=C([C@H](Cc1cccc(-c2cccc(S(=O)(=O)N3CCOCC3)c2)c1)N[*:1])[*:2]; Bip(4'-COOH) = N[C@@H](Cc1ccc(-c2ccc(C(=O)O)cc2)cc1)C(=O)O; Bip(4'-NHAc) = CC(=O)Nc1ccc(-c2ccc(C[C@H](N)C(=O)O)cc2)cc1; X31 = N=C(N)Nc1ccc(-c2ccc(C[C@H](N[*:1])C(=O)[*:2])cc2)cc1; Phe(3-CH2NH2) = O=C([C@H](Cc1cccc(CN[*:3])c1)N[*:1])[*:2]; Phe(3-CF3) = N[C@@H](Cc1cccc(C(F)(F)F)c1)C(=O)O; Ala(morpholin-4-yl) = N[C@@H](CN1CCOCC1)C(=O)O; Phe(4-CONH2) = NC(=O)c1ccc(C[C@H](N)C(=O)O)cc1; Phe(4-COOH) = N[C@@H](Cc1ccc(C(=O)O)cc1)C(=O)O; Bip = N[C@@H](Cc1ccc(-c2ccccc2)cc1)C(=O)O; Phe(3-Me) = Cc1cccc(C[C@H](N)C(=O)O)c1; Abu(3S-NH2) = C[C@H](N)[C@H](N)C(=O)O; Glutaryl = O=C(CCCC(=O)[*:2])[*:1]; Val(3-OH) = CC(C)(O)[C@H](N)C(=O)O; hArg = N=C(N)NCCCC[C@H](N)C(=O)O; Cha = N[C@@H](CC1CCCCC1)C(=O)O; aThr = C[C@H](O)[C@H](N)C(=O)O; dDab = NCC[C@@H](N)C(=O)O; Carboxymethyl = O=C(O)C*; NMeA = CN[C@@H](C)C(=O)O; Orn = NCCC[C@H](N)C(=O)O; Dab = NCC[C@H](N)C(=O)O; Dap = NC[C@H](N)C(=O)O

The compounds below were run against T1, Alexa fluor-647 labeled human PD-L1-Ig binding to Jurkat cell line over-expressing human PD-1 (Homo sapiens, UniProt Q15116) (assay: Jurkat-PD-1 Cell Binding High-Content Screening Assay (CBA): Method 3 (Alexa fluor-647 labeled PD-L1-Ig)). Conditions: Jurkat-PD-1 cells, Alexa fluor-647 labeled PD-L1-Ig 177 nM; head μM; read-out: CBA Method 3 μM.
T1 construct: expressed in transfected cells; host or cells: Jurkat
T1 sequence (Q15116 25-288): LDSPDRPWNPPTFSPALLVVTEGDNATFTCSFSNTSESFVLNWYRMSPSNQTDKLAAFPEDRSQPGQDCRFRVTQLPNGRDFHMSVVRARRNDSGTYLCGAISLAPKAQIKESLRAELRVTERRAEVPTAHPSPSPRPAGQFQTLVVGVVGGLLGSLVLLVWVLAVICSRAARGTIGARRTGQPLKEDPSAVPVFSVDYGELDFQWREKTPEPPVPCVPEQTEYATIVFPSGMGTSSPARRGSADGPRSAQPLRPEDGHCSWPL
Outline: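 Readout by high-content imaging of PFA-fixed, Hoechst-stained cells after 1 h with 177 nM (final) Alexa fluor-647 PD-L1-Ig. Compound was added first to hPD-1 Jurkat cells in RPMI plus 10% FCS for 2 h at 37 °C.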

Structure (SMILES) | IC50 [µM]
Cc1cccc(C[C@@H]2NC(=O)[C@H](CC(=O)O)NC(=O)[C@H](Cc3ccc(OCC(=O)O)cc3)NC(=O)[C@H](CC3CCCCC3)NC(=O)CSC[C@@H](C(=O)N[C@@H](CCN)C(N)=O)NC(=O)[C@H](CCCN)NC(=O)[C@H](C(C)C)NC(=O)[C@H](CC3CCCCC3)NC(=O)[C@H](CCN)NC(=O)[C@@H](CC(C)C)NC(=O)[C@H](C)N(C)C(=O)[C@H](CCC(N)=O)NC(=O)[C@H](Cc3ccc(-c4ccccc4)cc3)NC(=O)[C@H](Cc3ccc(C(=O)O)cc3)NC2=O)c1 [Example 5174] ({CH2CO}-[Cha]Y(Carboxymethyl)D[Phe(3-Me)][Phe(4-COOH)][Bip]Q[NMeA][dL][Dab][Cha]V[Orn]C[Dab]-NH2; thioether N-14) | 0.01
CC(=O)Nc1ccc(-c2ccc(C[C@@H]3NC(=O)[C@H](Cc4cccc(C)c4)NC(=O)[C@H](CC(=O)O)NC(=O)[C@H](Cc4ccc(-c5ccc(C(=O)O)cc5)cc4)NC(=O)[C@H](CN4CCOCC4)NC(=O)CSC[C@@H](C(=O)N[C@@H](CCN)C(N)=O)NC(=O)[C@H](CCC(=O)O)NC(=O)[C@H](C(C)C)NC(=O)[C@H](CC4CCCCC4)NC(=O)[C@H](CCN)NC(=O)[C@@H](CC(C)C)NC(=O)[C@H](C)N(C)C(=O)[C@H](Cc4ccc(C(=O)O)cc4)NC(=O)[C@H](Cc4ccc(-c5ccccc5)cc4)NC3=O)cc2)cc1 [Example 5092] ({CH2CO}-[Ala(morpholin-4-yl)][Bip(4'-COOH)]D[Phe(3-Me)][Bip(4'-NHAc)][Bip][Phe(4-COOH)][NMeA][dL][Dab][Cha]VEC[Dab]-NH2; thioether N-14) | 0.1
Cc1cccc(C[C@@H]2NC(=O)[C@H](CC(=O)O)NC(=O)[C@H](Cc3ccc(-c4ccc(C(=O)O)cc4)cc3)NC(=O)[C@H](CN3CCOCC3)NC(=O)CSC[C@@H](C(=O)N[C@@H](CCN)C(N)=O)NC(=O)[C@H](CO)NC(=O)[C@H](C(C)(C)O)NC(=O)[C@H](CC3CCCCC3)NC(=O)[C@H](Cc3cnc[nH]3)NC(=O)[C@@H](CC(C)C)NC(=O)[C@H](C)N(C)C(=O)[C@H](Cc3ccc(C(=O)O)cc3)NC(=O)[C@H](Cc3ccc(-c4ccccc4)cc3)NC(=O)[C@H](Cc3ccc(-c4ccc(C(=O)O)cc4)cc3)NC2=O)c1 [Example 5122] ({CH2CO}-[Ala(morpholin-4-yl)][Bip(4'-COOH)]D[Phe(3-Me)][Bip(4'-COOH)][Bip][Phe(4-COOH)][NMeA][dL]H[Cha][Val(3-OH)]SC[Dab]-NH2; thioether N-14) | 0.11
Cc1cccc(C[C@@H]2NC(=O)[C@H](CC(=O)O)NC(=O)[C@H](Cc3ccc(OCC(=O)O)cc3)NC(=O)[C@H](Cc3cccc(CN)c3)NC(=O)CSC[C@@H](C(=O)N[C@@H](CCN)C(N)=O)NC(=O)[C@H](CCCN)NC(=O)[C@H](C(C)C)NC(=O)[C@H](CC3CCCCC3)NC(=O)[C@H](CCN)NC(=O)[C@@H](CC(C)C)NC(=O)[C@H](C)N(C)C(=O)[C@H](CCC(N)=O)NC(=O)[C@H](Cc3ccc(-c4ccccc4)cc3)NC(=O)[C@H](Cc3ccc(C(=O)O)cc3)NC2=O)c1 [Example 5176] ({CH2CO}-[Phe(3-CH2NH2)]Y(Carboxymethyl)D[Phe(3-Me)][Phe(4-COOH)][Bip]Q[NMeA][dL][Dab][Cha]V[Orn]C[Dab]-NH2; thioether N-14) | 0.01
CC(C)C[C@H]1NC(=O)[C@H](C)N(C)C(=O)[C@H](Cc2ccc(-c3ccc(NC(=N)N)cc3)cc2)NC(=O)[C@H](Cc2ccc(-c3ccccc3)cc2)NC(=O)[C@H](Cc2ccc(OCC(=O)O)cc2)NC(=O)[C@H](Cc2cccc(C(F)(F)F)c2)NC(=O)[C@H](CC(=O)O)NC(=O)[C@H](Cc2ccc(C(=O)O)cc2)NC(=O)[C@H]([C@H](C)N)NC(=O)CSC[C@@H](C(=O)N[C@H](CCN)C(N)=O)NC(=O)[C@H](CO)NC(=O)[C@H]([C@H](C)O)NC(=O)[C@H](CC2CCCCC2)NC(=O)[C@H](CCN)NC1=O [Example 5231] ({CH2CO}-[Abu(3S-NH2)][Phe(4-COOH)]D[Phe(3-CF3)]Y(Carboxymethyl)[Bip][X31][NMeA][dL][Dab][Cha][aThr]SC[dDab]-NH2; thioether N-14) | 0.14
Cc1cccc(C[C@@H]2NC(=O)[C@H](CC(=O)O)NC(=O)[C@H](Cc3ccc(OCC(=O)O)cc3)NC(=O)[C@H](CN3CCOCC3)NC(=O)CSC[C@@H](C(=O)N[C@@H](CCN)C(N)=O)NC(=O)[C@H](CCCN)NC(=O)[C@H](C(C)C)NC(=O)[C@H](CC3CCCCC3)NC(=O)[C@H](CCN)NC(=O)[C@@H](CC(C)C)NC(=O)[C@H](C)N(C)C(=O)[C@H](CCC(N)=O)NC(=O)[C@H](Cc3ccc(-c4ccccc4)cc3)NC(=O)[C@H](Cc3cccc(-c4cccc(S(=O)(=O)N5CCOCC5)c4)c3)NC2=O)c1 [Example 5106] ({CH2CO}-[Ala(morpholin-4-yl)]Y(Carboxymethyl)D[Phe(3-Me)][X51][Bip]Q[NMeA][dL][Dab][Cha]V[Orn]C[Dab]-NH2; thioether N-14) | 0.06
CC(C)C[C@H]1NC(=O)[C@H](C)N(C)C(=O)[C@H](CCC(N)=O)NC(=O)[C@H](Cc2ccc(-c3ccccc3)cc2)NC(=O)[C@H](Cc2ccc(OCC(=O)O)cc2)NC(=O)[C@H](Cc2cccc(C(F)(F)F)c2)NC(=O)[C@H](CC(=O)O)NC(=O)[C@H](Cc2ccc(O)cc2)NC(=O)[C@H](CC2CCCCC2)NC(=O)CSC[C@@H](C(=O)N[C@@H](CCN)C(N)=O)NC(=O)[C@H](CCCN)NC(=O)[C@H](C(C)C)NC(=O)[C@H](CC2CCCCC2)NC(=O)[C@H](CCN)NC1=O [Example 5238] ({CH2CO}-[Cha]YD[Phe(3-CF3)]Y(Carboxymethyl)[Bip]Q[NMeA][dL][Dab][Cha]V[Orn]C[Dab]-NH2; thioether N-14) | 0.01
Cc1cccc(C[C@@H]2NC(=O)[C@H](CC(=O)O)NC(=O)[C@H](Cc3ccc(OCC(=O)O)cc3)NC(=O)[C@H](CC3CCCCC3)NC(=O)CSC[C@@H](C(=O)N[C@@H](CCN)C(N)=O)NC(=O)[C@H](CCCN)NC(=O)[C@H](C(C)C)NC(=O)[C@H](CN3CCOCC3)NC(=O)[C@H](CCN)NC(=O)[C@@H](CC(C)C)NC(=O)[C@H](C)N(C)C(=O)[C@H](CCC(N)=O)NC(=O)[C@H](Cc3ccc(-c4ccccc4)cc3)NC(=O)[C@H](Cc3ccc(C(=O)O)cc3)NC2=O)c1 [Example 5191] ({CH2CO}-[Cha]Y(Carboxymethyl)D[Phe(3-Me)][Phe(4-COOH)][Bip]Q[NMeA][dL][Dab][Ala(morpholin-4-yl)]V[Orn]C[Dab]-NH2; thioether N-14) | 0.12
CC(=O)Nc1ccc(-c2ccc(C[C@@H]3NC(=O)[C@H](Cc4cccc(C(F)(F)F)c4)NC(=O)[C@H](CC(=O)O)NC(=O)[C@H](Cc4ccc(C(=O)O)cc4)NC(=O)[C@H](CCN)NC(=O)CSC[C@@H](C(=O)N[C@@H](CCN)C(N)=O)NC(=O)[C@H](CCC(N)=O)NC(=O)[C@H](C(C)C)NC(=O)[C@H](CC4CCCCC4)NC(=O)[C@H](CCN)NC(=O)[C@@H](CC(C)C)NC(=O)[C@H](C)N(C)C(=O)[C@H](Cc4ccc(C(N)=O)cc4)NC(=O)[C@H](Cc4ccc(-c5ccccc5)cc4)NC3=O)cc2)cc1 [Example 5097] ({CH2CO}-[Dab][Phe(4-COOH)]D[Phe(3-CF3)][Bip(4'-NHAc)][Bip][Phe(4-CONH2)][NMeA][dL][Dab][Cha]VQC[Dab]-NH2; thioether N-14) | 0.02

Same assay, conditions: Jurkat-PD-1 cells, Alexa fluor-647 labeled PD-L1-Ig 177 nM; nM; read-out: CBA Method 3

Structure (SMILES) | IC50 [µM]
CC(C)C[C@H]1NC(=O)[C@H](C)N(C)C(=O)[C@H](Cc2ccc(C(=O)O)cc2)NC(=O)[C@H](Cc2ccc(-c3ccccc3)cc2)NC(=O)[C@H](Cc2ccc(C(=O)O)cc2)NC(=O)[C@H](Cc2cccc(C(F)(F)F)c2)NC(=O)[C@H](CC(=O)O)NC(=O)[C@H](Cc2ccc(C(=O)O)cc2)NC(=O)[C@H](CN2CCOCC2)NC(=O)CSC[C@@H](C(=O)N[C@@H](CCN)C(N)=O)NC(=O)[C@H](CNC(=O)CCCC(=O)O)NC(=O)[C@H](C(C)C)NC(=O)[C@H](CC2CCCCC2)NC(=O)[C@H](CCN)NC1=O [Example 5234] ({CH2CO}-[Ala(morpholin-4-yl)][Phe(4-COOH)]D[Phe(3-CF3)][Phe(4-COOH)][Bip][Phe(4-COOH)][NMeA][dL][Dab][Cha]V[Dap](Glutaryl)C[Dab]-NH2; thioether N-14) | 0.0034
CC(=O)Nc1ccc(-c2ccc(C[C@@H]3NC(=O)[C@H](Cc4cccc(C)c4)NC(=O)[C@H](CC(=O)O)NC(=O)[C@H](Cc4ccc(-c5ccc(C(=O)O)cc5)cc4)NC(=O)[C@H](CN4CCOCC4)NC(=O)CSC[C@@H](C(=O)N[C@@H](CCN)C(N)=O)NC(=O)[C@H](CO)NC(=O)[C@H](C(C)(C)O)NC(=O)[C@H](CC4CCCCC4)NC(=O)[C@H](Cc4cnc[nH]4)NC(=O)[C@@H](CC(C)C)NC(=O)[C@H](C)N(C)C(=O)[C@H](Cc4ccc(C(=O)O)cc4)NC(=O)[C@H](Cc4ccc(-c5ccccc5)cc4)NC3=O)cc2)cc1 [Example 5123] ({CH2CO}-[Ala(morpholin-4-yl)][Bip(4'-COOH)]D[Phe(3-Me)][Bip(4'-NHAc)][Bip][Phe(4-COOH)][NMeA][dL]H[Cha][Val(3-OH)]SC[Dab]-NH2; thioether N-14) | 0.0094
Cc1cccc(C[C@@H]2NC(=O)[C@H](CC(=O)O)NC(=O)[C@H](Cc3ccc(OCC(=O)O)cc3)NC(=O)[C@H](CCCCNC(=N)N)NC(=O)CSC[C@@H](C(=O)N[C@@H](CCN)C(N)=O)NC(=O)[C@H](CCCN)NC(=O)[C@H](C(C)C)NC(=O)[C@H](CC3CCCCC3)NC(=O)[C@H](CCN)NC(=O)[C@@H](CC(C)C)NC(=O)[C@H](C)N(C)C(=O)[C@H](CCC(N)=O)NC(=O)[C@H](Cc3ccc(-c4ccccc4)cc3)NC(=O)[C@H](Cc3ccc(C(=O)O)cc3)NC2=O)c1 [Example 5184] ({CH2CO}-[hArg]Y(Carboxymethyl)D[Phe(3-Me)][Phe(4-COOH)][Bip]Q[NMeA][dL][Dab][Cha]V[Orn]C[Dab]-NH2; thioether N-14) | 0.0011
